From BindingDB's records for doi:10.1021/jm070556y (St. Jude Research Hospital, 2007)

Legend:
[1] = molecular target: T1, Thyroid hormone receptor beta [209-461] (Homo sapiens, UniProt P10828); test: Fluorescence Polarization (FP) Competition Assay
T1 construct: 209-461
T1 sequence (P10828 whole entry): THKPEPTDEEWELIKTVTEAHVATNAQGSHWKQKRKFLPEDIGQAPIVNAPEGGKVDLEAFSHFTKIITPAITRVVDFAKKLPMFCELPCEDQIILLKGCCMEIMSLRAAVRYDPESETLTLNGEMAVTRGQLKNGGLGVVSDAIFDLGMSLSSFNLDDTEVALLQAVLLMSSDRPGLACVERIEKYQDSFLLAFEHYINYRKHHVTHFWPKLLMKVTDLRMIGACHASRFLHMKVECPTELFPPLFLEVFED
Procedure: (§1) IC50 is the concentration of each compound required to inhibit 50% of the binding between the TR LBD and the SRC2-2 peptide using fluorescence polarization (FP) assay. The competition binding experiments were evaluated using PrismPad, and the IC50 values were obtained by fitting the data to an equation, Sigmoidal dose-response (variable slope) or four parameter logistic equation.

[2] = molecular target: T2, Thyroid hormone receptor alpha [148-410] (Homo sapiens, UniProt P10827); test: Fluorescence Polarization (FP) Competition Assay
T2 construct: 148-410
T2 sequence (P10827 whole entry): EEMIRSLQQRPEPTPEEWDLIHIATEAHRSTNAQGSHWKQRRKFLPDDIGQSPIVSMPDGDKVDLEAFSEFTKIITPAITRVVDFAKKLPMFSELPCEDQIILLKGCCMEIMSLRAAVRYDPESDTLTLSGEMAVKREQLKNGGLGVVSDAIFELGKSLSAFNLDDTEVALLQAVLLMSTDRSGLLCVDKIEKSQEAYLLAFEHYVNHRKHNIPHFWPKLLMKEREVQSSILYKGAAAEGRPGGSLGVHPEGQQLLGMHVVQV
Procedure: as §1

IC50 [1]	IC50 ([2]; pH 7.2, 22 °C)	IC50 [2]	SMILES
2.7 µM	4.3 µM	–	CCCCCCc1ccc(C(=O)CCN2CCCC2)cc1 [1-(4-hexylphenyl)-3-(pyrrolidin-1-yl)propan-1-one]
66 µM	71 µM	–	C=CC(=O)Oc1ccc(CCCC)cc1 [4-butylphenyl prop-2-enoate]
10.5 µM	–	23 µM	C=CC(=O)Oc1ccc(CCCCCCC)cc1 [4-heptylphenyl prop-2-enoate]
18.6 µM	–	45.2 µM	C=CC(=O)Oc1ccc(CCCCCC)cc1 [4-hexylphenyl prop-2-enoate]
11.4 µM	–	21.4 µM	C=CC(=O)Oc1ccc(CCCCCCCC)cc1 [4-octylphenyl prop-2-enoate]
33.9 µM	60.9 µM	–	C=CC(=O)Oc1ccc(CCCCC)cc1 [4-pentylphenyl prop-2-enoate]
17.7 µM	19.2 µM	–	CCCCCCc1ccc(C(=O)/C=C/C(=O)O)cc1 [(2E)-4-(4-hexylphenyl)-4-oxobut-2-enoic acid]
55.8 µM	–	> 100 µM	C=CC(=O)Oc1ccc(C(=O)OCCCCC)cc1 [pentyl 4-(prop-2-enoyloxy)benzoate]

Second part, the compound before the results:

SMILES	IC50 [1]	IC50 ([2]; pH 7.2, 22 °C)	IC50 [2]
C=CC(=O)OC1CCC(C(C)(C)CC)CC1 (centres undefined) [4-(2-methylbutan-2-yl)cyclohexyl prop-2-enoate]	69.1 µM	–	75.6 µM
C=CC(=O)Oc1ccc(C(C)(C)CC)cc1 [4-(2-methylbutan-2-yl)phenyl prop-2-enoate]	43.5 µM	69.6 µM	–
C=CC(=O)Oc1ccc(NC(=O)CCC)cc1 [4-butanamidophenyl prop-2-enoate]	85.9 µM	–	> 100 µM
C=CC(=O)Oc1ccc(CCC)cc1 [4-propylphenyl prop-2-enoate]	100 µM	–	–
C=CC(=O)Oc1ccc2c(c1)CCCC2 [5,6,7,8-tetrahydronaphthalen-2-yl prop-2-enoate]	69.8 µM	–	85.3 µM
C=CC(=O)Oc1ccccc1C(=O)OCCCCCC [hexyl 2-(prop-2-enoyloxy)benzoate]	8.2 µM	–	39.1 µM
C=CC(=O)Oc1ccc(C(=O)OCCC)cc1 [propyl 4-(prop-2-enoyloxy)benzoate]	61 µM	–	> 100 µM
